A word on the IC50: it is the midpoint of a concentration-inhibition curve.

IC50 data for one compound are collected here from patent US9949979B2, “Use of inhibitors of the activity or function of PI3K” (NOVARTIS AG, priority 2011, dated 2018).

The subject of the test is TLR9. As to the kind of experiment: TLR9-induced IFNalpha in human PBMC (CpG2216, AlphaLISA). It counts as cell-based. Conditions: read-out: TLR9-ligand induced IFNα in human PBMC IC50. Here is the method:
2.4 Determination of TLR9-Induced IFNalpha in Human Peripheral Blood Mononuclear Cells (PBMCs) and Isolated Plasmacytoid Dendritic Cells (pDCs)
Human blood (ca. 75 ml) was collected in 10 S-Monovette tubes containing Heparin (S-Monovette 7.5 mL NH Heparin 16 IU/mL blood; Starstedt). Leucosep™ tubes (30 mL #227290; Greiner Bio-one) were prepared by addition of 15 ml lymphocyte separation medium LSM1077™ per tube (#J15-004; PAA Laboratories) and centrifugation for 30 sec at 1000 g. Some 25 ml blood was transferred to Leucosep™ tubes following dilution with equal parts of PBS (without Ca2+/Mg2+; #14190-094). […] The PBMC were counted using a Countess® Automated cell counter (sample was pre-diluted 1:10 in Media, prior to the addition of equal volume (10 μl) of Trypan Blue). […]
Compounds were pre-diluted in 100% v/v DMSO (#41640-100 mL; Sigma-Aldrich), followed by transfer in Media (to achieve a final DMSO concentration of 0.25%). […] Plates were briefly centrifuged (200×g for 2 min at 22° C.) and supernatant samples (30 μl) removed for quantification of IFNα levels.
For quantification of IFNalpha the human interferon AlphaLISA Kit (#AL264F) from PerkinElmer was used. […] Data were collected for analysis and quantification of IFNα levels.
Data were analysed using Excel XL fit 4.0 (Microsoft) with XLfit add-in (IDBS; version 4.3.2). […]

With `CCC(=O)N1CC[C@H](Nc2ncnc3c2CN(c2cnc(OC)c(C(F)(F)F)c2)CC3)C1` [Example 67, 1-{(S)-3-[6-(6-Methoxy-5-trifluoromethyl-pyridin-3-yl)-5,6,7,8-tetrahydro-pyrido[4,3-d]pyrimidin-4-ylamino]-pyrrolidin-1-yl}-propan-1-one], the IC50 was found to be 109 nM.
